Source: paper PMC6326535, “Total Synthesis of Xanthoangelol B and Its Various Fragments: Toward Inhibition of Virulence Factor Production of Staphylococcus aureus” (Journal of Medicinal Chemistry, 2018)
Read-outs that look alike come from different tables or passages of the source.

Tests used:
Gram-positive bacteria = details: cited from earlier work
[1] = molecular target: minimal kinase domain of SaeS (Staphylococcus aureus, UniProt Q840P7); assay: biochemical
saeS knockout S. aureus = assay type: in vivo, Galleria mellonella; details: for reduction in CFU compared to the wild type infection group: saeS knockout infection, after 72 h
S. aureus USA300 [2] = assay type: in vivo, Galleria mellonella; details: 72 h; for survival compared to the vehicle control: 5 × 10^6 CFU
SaeRS TCS = assay: microbe, parasite or virus in culture; assay type: cell-based, Staphylococcus aureus USA300; details: for IC50 / IC90: Staphylococcus aureus; for IC50: USA300, 8 h, read-out: IC50 against the SaeRS GFP reporter; for IC90: read-out: IC90 for the SaeRS GFP reporter; for inhibition of the SaeRS TCS: at 20 μM
S. aureus USA300 [3] = details: for growth of S. aureus: at (up to) 64 μM, up to 20 h; for bacterial growth: 8 h
Procedure: Figure 1 Various concentrations of compounds were used to treat the USA300-Phlam GFP strain, and GFP expression was analyzed at 8 h. […] All the experiments were performed in triplicates, and significance was compared with control (no treatment) using one-way ANOVA.
56 at the concentration in the range from 2 μM to 64 μM. The cell density w as m onitored as the
optical density at 600 nm.
B act eri al growt h for 8 h i n t he presence of PM-56; C, B acterial growth for 20 h in the presence of
xant hoangel ol B 1; D, B act eri al growt h for 20 hours i n t he presence of PM-56. All the experi m ents
were perform ed in triplicates.

AgrC = AgrC (Staphylococcus aureus, UniProt O07911); assay type: biochemical; details: for IC50: 5 μM protein, autokinase activity
[4] = molecular target: SaeS phosphotransferase (PT) activity (Staphylococcus aureus, UniProt Q840P7); assay type: biochemical; details: radioactively phosphorylated SaeS in the presence of SaeR
[5] = tested on: methicillin-resistant S. aureus USA300; assay: cells; assay type: cell-based, Staphylococcus aureus
[6] = tested on: hla, aur, γ-hemolysin, staphylokinase, sarA; assay type: cell-based, Staphylococcus aureus
HeLa cells [7] = assay: LDH release cytotoxicity assay; assay type: cell-based; details: for IC50: Homo sapiens, HeLa, 72 h, read-out: IC50 for HeLa cell survival
S. aureus USA300 [8] = assay type: in vivo, Galleria mellonella; details: for bacterial burden compared to the vehicle control: dose of approximately 1 mg/kg
HeLa cells [9] = tested on: HeLa cells
kinase domain of SaeS = kinase domain of SaeS (Staphylococcus aureus, UniProt Q840P7); assay: biochemical
Procedure: Next, we attempted to measure the direct binding of 1 and PM-56 with SaeS using the intrinsic fluorescence quenching assay. Since SaeS contains seven Tyr (and zero Trp) residues, the Tyr fluorescence at 306 nm was monitored before and after binding of 1 and PM-56. The reduction of fluorescence upon ligand binding was expressed as the percent fluorescence quenching, and the Kd value was calculated by nonlinear regression fitting (Figure S9).
Purified recom binant SaeS (1 µM ) w as incubated w ith various concentrations
of ei t her (A ) 1 or (B ) PM-56 for 15 m in at room tem perature. U pon excitation at 276 nm,
reductions of SaeS intensities at an emission peak of 306 nm w ere recorded and plotted against the
chem ical concentrations. D ata points were averaged from three independent m easurem ents and
expressed as m eans (dots) ± standard deviations of m eans (w hiskers). Solid lines represent the […]
The intrinsic fluorescence quenching assay to determine the binding affinities of […]
fluorescence of t h e kinase dom ain of SaeS w as recorded at an emission peak of 306 nm upon […]
Eclipse fluorescence spectrophotom eter (A gilent Technologies, U SA ). […]
chem icals but w ithout SaeS w ere used as blanks for correcting the fluorescence intensities. […]
by plotting the reductions of SaeS fluorescence intensity at each chem ical treatm ent against the […]

[10] = molecular target: minimal kinase domain of SaeS / MBP-SaeS (Staphylococcus aureus, UniProt Q840P7); assay type: binding; details: 1.0 mM compound, 0.1 mM SaeS or 30 μM MBP-SaeS
[11] = parameters: method as in PMID 22452965; details: mice, single dose study; cited from earlier work
[12] = Staphylococcus aureus, USA300, Erythrocyte, 8 h, read-out: IC50 for the inhibition of erythrocyte hemolysis, human RBCs, 8 h incubation of USA300 with compound
[13] = read-out: IC50 for the inhibition of erythrocyte hemolysis, human RBCs, 8 h incubation of USA300 with compound

AgrC, sequence (O07911 206-430 limits assumed): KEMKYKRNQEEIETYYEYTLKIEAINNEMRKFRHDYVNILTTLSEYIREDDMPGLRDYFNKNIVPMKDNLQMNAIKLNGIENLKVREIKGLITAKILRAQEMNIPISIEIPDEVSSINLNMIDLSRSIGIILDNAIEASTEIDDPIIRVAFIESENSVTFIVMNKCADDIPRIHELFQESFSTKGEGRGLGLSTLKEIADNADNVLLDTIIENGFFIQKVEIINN
minimal kinase domain of SaeS, sequence (Q840P7 118-351): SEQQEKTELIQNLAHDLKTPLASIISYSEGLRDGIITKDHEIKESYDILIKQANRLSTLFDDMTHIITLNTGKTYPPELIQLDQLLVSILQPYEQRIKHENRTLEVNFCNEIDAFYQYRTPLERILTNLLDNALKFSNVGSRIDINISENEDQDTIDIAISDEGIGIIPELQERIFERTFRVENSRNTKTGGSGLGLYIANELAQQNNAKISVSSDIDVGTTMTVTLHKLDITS
SaeS phosphotransferase (PT) activity, sequence (Q840P7 118-351): as above
kinase domain of SaeS, sequence (Q840P7 118-351): as above
minimal kinase domain of SaeS / MBP-SaeS, sequence (Q840P7 118-351): as above

## 4-hydroxyderricin
Gram-positive bacteria
  antibacterial activity against Gram-positive bacteria: shown to have an antibacterial activity

## C=C(C)C(O)CC/C(C)=C/Cc1c(O)ccc(C(=O)/C=C/c2ccc(O)cc2)c1O (centres unmarked) [Compound 1, Xanthoangelol B]
[1]
  IC50: 220 µM
saeS knockout S. aureus; 2.042 mg/kg body weight every 12 h for 72 h
  survival rate of G. mellonella infected with the knockout strain: 70%
saeS knockout S. aureus; 2.042 mg/kg
  reduction in CFU compared to the wild type infection group: 76.8%
S. aureus USA300 [2]; 2.0 mg/kg every 12 h
  survival compared to the vehicle control: 3.5 fold
S. aureus USA300 [2]; 3.1 mg/kg every 12 h
  survival: 90%
S. aureus USA300 [2]; 4.1 mg/kg every 12 h
  survival: complete survival
SaeRS TCS
  inhibitory activity against SaeRS: excellent inhibitory activity
  IC50: 2.1 µM
  IC90: 8 µM
S. aureus USA300 [3]
  growth of S. aureus: severely inhibited
S. aureus USA300 [3]; at up to 8 μM
  bacterial growth: did not disrupt bacterial growth
S. aureus USA300 [3]; growth followed up to 20 h
  concentration from which growth inhibition started: ≥ 16 µM
AgrC
  lower activity for AgrC compared to that for SaeS: 1.5 fold
  IC50: 339 µM
[4]
  inhibition of phosphotransferase (PT) activity: no inhibition was observed
[5]; [12]
  IC50: 4.62 µM
[5]; at 4 μM
  protection from hemolysis: visible protection
[5]; at 8 μM
  protection from hemolysis: comparable level of protection to that of saeS knockout mutants
[5]; [13]
  IC50: 4.6 µM
[6]
  level of sarA transcription: not significantly affected
HeLa cells [7]
  cytotoxicity IC50 relative to IC50 for the GFP-reporter inhibition: 10 fold
  IC50: 19.7 µM
S. aureus USA300 [8]; 4.1 mg/kg
  decline of bacterial burden: 1.72 log10 CFU/worm
S. aureus USA300 [8]
  bacterial burden compared to the vehicle control: sharp decrease
HeLa cells [9]
  visible toxicity to HeLa cells: did not produce substantially visible toxicity
Kinase domain of SaeS
  Kd: 40 µM

## C=C(C)C(O)CC/C(C)=C/Cc1c(O)ccc(C(=O)CC(O)c2ccc(O)cc2)c1O (centres unmarked) [PM-56, 1-(2,4-Dihydroxy-3-(6-hydroxy-3,7-dimethylocta-2,7-dien-1-yl)phenyl)-3-hydroxy-3-(4-hydroxyphenyl)propan-1-one]
[1]
  IC50: 160 µM
  higher activity than 1 for SaeS: 1.4 fold
saeS knockout S. aureus; 2.131 mg/kg body weight every 12 h for 72 h
  survival rate of G. mellonella infected with the knockout strain: 90%
saeS knockout S. aureus; 2.131 mg/kg
  reduction in CFU compared to the wild type infection group: 83.3%
S. aureus USA300 [2]; 2.1 mg/kg every 12 h
  survival compared to the vehicle control: 3.5 fold
S. aureus USA300 [2]; 3.2 mg/kg every 12 h
  survival: 90%
S. aureus USA300 [2]; 4.3 mg/kg every 12 h
  survival: complete survival
[10]
  binding to SaeS by 1D CPMG and 1D STD NMR: specifically binds to SaeS
SaeRS TCS
  inhibitory activity against SaeRS: excellent inhibitory activity
  IC50: 4.3 µM
  IC90: 10 µM
S. aureus USA300 [3]
  growth of S. aureus: comparable growth to the control
S. aureus USA300 [3]; at up to 16 μM
  bacterial growth: did not disrupt bacterial growth
AgrC
  higher activity than 1 for AgrC: 2.4 fold
  IC50: 140 µM
[4]
  inhibition of phosphotransferase (PT) activity: no inhibition was observed
[5]; [12]
  IC50: 3.97 µM
[5]; at 4 μM
  protection from hemolysis: visible protection
[5]; at 8 μM
  protection from hemolysis: comparable level of protection to that of saeS knockout mutants
[5]; [13]
  IC50: 4 µM
[6]
  level of sarA transcription: not significantly affected
HeLa cells [7]
  cytotoxicity IC50 relative to IC50 for the GFP-reporter inhibition: 7 fold
  IC50: 28.9 µM
S. aureus USA300 [8]; 4.3 mg/kg
  decline of bacterial burden: 1.84 log10 CFU/worm
S. aureus USA300 [8]
  bacterial burden compared to the vehicle control: sharp decrease
HeLa cells [9]
  visible toxicity to HeLa cells: did not produce substantially visible toxicity
Kinase domain of SaeS
  Kd: 6.8 µM

## COc1ccc(C(=O)/C=C/c2ccc(O)cc2)c(O)c1C/C=C(\C)CCC=C(C)C [xanthoangelol F, reference compound]
SaeRS TCS
  inhibition of the SaeRS TCS: did not show inhibitory activity

## CC(C)=CCC/C(C)=C/Cc1c(O)ccc(C(=O)/C=C/c2ccc(O)cc2)c1O [xanthoangelol]
SaeRS TCS
  inhibition of the SaeRS TCS: did not show inhibitory activity
[11]
  absorption and distribution after oral administration: absorbed and distributed rapidly
  absorption efficiency: low
Gram-positive bacteria
  antibacterial activity against Gram-positive bacteria: shown to have an antibacterial activity
